# Results published in patent publication US20230227506A1, “Fatty Acid Complexes Of Coronavirus Spike Protein And Their Use” (priority 2020, published 2023).
# Entries after “also recorded” stand apart in the source; their conditions may differ. Where two headings read alike, the source gives them in different places.
# Key:
# SARS-CoV-2 Spike protein [1] = type: cell-based
# coronaviruses = conditions: reference (4); cited from earlier work
# Caco-2-ACE2 cells = conditions: 50 uM linoleic acid
# [2] = test system: SARS-CoV-2 reporter virus (rSARS-CoV-2/Wuhan/ORF7-tGFP); type: cell-based
# [3] = test system: SARS-CoV-2 S glycoprotein; type: binding
# [4] = target: T1, SARS-CoV-2 Spike Protein receptor binding domain (RBD) (Severe acute respiratory syndrome coronavirus 2, UniProt P0DTC2)
# T1 construct: SARS-CoV-2 RBD (amino acids R319 to F541); made in house; host or cells: Hi5 insect cells, MultiBac baculovirus
# SARS-CoV-2 Spike protein [5] = type: binding
# [6] = cited from earlier work
Structure (SMILES),Minivirus-ACE2 cell binding compared to ApoS Miniviruses (SARS-CoV-2 Spike protein [1]),Virus replication on exogenous supplement (coronaviruses),Cell death of treated infected cells (Caco-2-ACE2 cells),Effect on SARS-CoV-2 replication factories [2],Effect on viral particles [2],Binding to S in the trimer seen by cryo-EM [3],Binding to immobilized RBD quantified by SPR [4],Binding of FFA in Spike protein verified by LC-MS/MS (SARS-CoV-2 Spike protein [5]),Water solubility [6],Water solubility (in words) [6],Water solubility (in words) ([6]; listed as Linoleic Acid)
"CCCCC/C=C\C/C=C\C/C=C\C/C=C\CCCC(=O)O [AA, arachidonic acid]",able to reduce,suppressed virus replication,–,–,–,–,–,–,–,–,–
"CCCCC/C=C\C/C=C\CCCCCCCC(=O)O [LA, linoleic acid]",able to reduce,suppressed virus replication,significant cell death was not observed,disrupted; also recorded: wrecked,visible deformation and destruction,tightly binds,high affinity binding,successfully verified,about 100 mg/l,extremely low water solubility,virtually insoluble in water
"CCCCCCCCCCCCCCCC(=O)O [PA, palmitic acid]",did not significantly reduce,–,–,–,–,–,–,not,–,–,–
"CCCCCCCC/C=C\CCCCCCCC(=O)O [OA, oleic acid]",able to reduce,–,–,–,–,–,High affinity binding,successfully verified,–,–,–
